Entries after “also recorded” stand apart in the source; their conditions may differ.
What was measured:
SRPK1 [1] = target: T1, SRPK1 (Homo sapiens, UniProt Q96SB4); assay: In vitro kinase assay (Kinase-Glo), SRPK1 inhibition; assay type: biochemical; conditions: SRPK1 inhibition assay; 1 µM ATP, SRSF1 RS peptide, 30°C 10 minutes
T1 construct: 0.1 µg of purified SRPK1 kinase
Protocol: Candidate compounds were tested for SRPK1 inhibition using a Kinase-Glo assay (Promega, Southampton, UK32). […] Candidate compounds were serially diluted from 10 µM to 0.5 nM and added to the reaction mixture, wells with omitted SRPK1 kinase and omitted compounds were also added as controls. All wells contained 1% DMSO (Fisher Scientific, Loughborough, UK). One micromolar ATP was added, wells minus ATP were used as background controls. The plate was then incubated at 30°C for 10 minutes. An equal volume of Kinase-Glo (25 µL; Promega) was added to each well and the plate read for luminescence using a Fluostar Optima (BMG Labtech) .

SRPK1 [2] = target: T1, SRPK1; assay: Differential scanning fluorimetry (DSF); assay type: binding; conditions: higher ΔTm indicates higher affinity
Protocol: Differential Scanning Fluorimetry was performed as described in Federov et al (2011). […]

[3] = tested on: primary RPE cells and ARPE-19 cells; assay: qRT-PCR and conventional PCR of VEGF-A alternative splicing; assay type: cell-based, human; conditions: Figures 8 and 9
Source text: Primary human retinal epithelial cells were lysed in Trizol reagent and mRNA was extracted using the method of Chomczynski and Sacchi, or using an RNeasy RNA extraction kit (Qiagen, UK). mRNA was reverse transcribed using Thermoscript reverse transcriptase (Fisher Scientific, UK). The cDNA was amplified using primers designed to amplify the region spanning the proximal and distal splice sites in human VEGF-A165a and VEGF-A165b, to amplify both isoforms and differentiate between them due to the fact that the exon 8b-containing isoform is 66-bp shorter than the exon 8a-containing isoform. The primers used were; 5'-[…]-3' (SEQ ID NO:2) and 5'-[…]-3' (SEQ ID NO:3) with the following conditions; 96°C for 2 min followed by 45 cycles at 96°C-30s, 60°C-30s and 72 °C -30 s. The PCR mix consisted of DNA: 200 ng, MgCl2 0.25 mM, Primer each 1 nM, Taq polymerase 1 unit and dH2O up to 25 µl. Control plasmid concentration: VEGF165a 500 ng and VEGF165b 1 µg. PCR products were run on 3% agarose gels containing 0.5 µg/ml ethidium bromide.
RNA was isolated and reverse transcribed as described above. Quantitative PCR (qPCR) was performed with a LightCycler 480 (Roche) q-PCR machine. The qPCR mix included PCR-grade dH2O 3 µl, PCR Primer (1 µM) 2 µl. […]
VEGF-A alternative splicing was further measured in retinal pigmented epithelial cells by qRT-PCR and conventional PCR.

[4] = tested on: retinal pigmented epithelial cells; assay: Isoform specific VEGF ELISA in retinal pigmented epithelial cells; assay type: cell-based; conditions: relative to DMSO control; Figure 3
Protocol: 96-well clear microplate (high sensitivity thermo immulon or costar 9018) were coated with 100 µL of 10 µg/ml VEGFxxxb or 0.25 µg/ml anti-hVEGF165a per well. The plate was sealed with parafilm and incubated overnight on the shaker at room temp. Each well was aspirated and washed with Wash Buffer (200 µl PBS-Tween 0.05%), two times for a total of three washes. After the last wash, remaining Wash Buffer was removed by inverting the plate and blotting it against clean paper towels. Plates were blocked by adding 100 µl of Reagent Diluent (1%BSA/PBS) to each well and incubated at room temp on a shaker for 2 hours. The aspiration/wash step was repeated. 100 µL of standards or samples in 1% BSA/PBS were added to each well, covered with parafilm and incubated 2 hours at room temperature. The aspiration/wash was repeated and 100 µL of 100 ng/ml Detection Antibody (BAF293), diluted in Reagent Diluent, was added to each well which were covered with parafilm and incubated 2 hours at room temp. The aspiration/wash was repeated and 100 µL of the working dilution of Streptavidin-HRP (1:200 dilution) was added to each well. […] The optical density of each well was measured immediately, using a microplate reader set to 450 nm.
To determine whether these compounds could switch splicing of VEGF isoforms, VEGF was measured in retinal pigmented epithelial cells by isoform specific ELISA.

laser-induced CNV = assay: Laser-induced choroidal neovascularisation (CNV) model, topical eye drops; assay type: in vivo, C57/B6 mice; conditions: for anti-angiogenic efficacy as an eye drop (CNV lesion size): twice daily eye drops, compared with reference compound, Figures 4-7
Protocol: 6-8 week-old female C57/B6 mice were anesthetized with an intraperitoneal injection of a mixture of 50 mg/kg ketamine and 0.5 mg/kg medetomidine. The pupils were immediately dilated by topical (eyedrop) application with a dilator such as 5% phenylephrine hydrochloride and 1% tropicamide. Four photocoagulation lesions were delivered with a green Merilas 532α laser (450 mW, 130 ms) between the "large" retinal vessels in clear space with no vessels in a peripapillary distribution at a distance of 1-2 disc-diameters in each eye. Only clean laser lesions with a subretinal bubble at the time of treatment were included in the study. Immediately following laser photocoagulation the animals were given topical eye drops of candidate compounds twice daily (10 µl, eyes held for 30 seconds to prevent animal wiping drop away).
After one week, mice were anesthetized with an intraperitoneal injection of a mixture of 50 mg/kg ketamine and 0.5 mg/kg medetomidine. The pupils were immediately dilated by topical (eyedrop) application with a dilator such as 5% phenylephrine hydrochloride and 1% tropicamide. Mice were administered an intraperitoneal injection of sodium fluorescein (10%). Phase contrast and green fluorescent fundus images were taken with an angiography microscope and camera with each lesion in focus. The mice were killed by a schedule 1 method and eyes were either unfixed for retinal dissection and protein extraction, or fixed and enucleated and choroids stained and examined.

T1 sequence (Q96SB4 whole entry): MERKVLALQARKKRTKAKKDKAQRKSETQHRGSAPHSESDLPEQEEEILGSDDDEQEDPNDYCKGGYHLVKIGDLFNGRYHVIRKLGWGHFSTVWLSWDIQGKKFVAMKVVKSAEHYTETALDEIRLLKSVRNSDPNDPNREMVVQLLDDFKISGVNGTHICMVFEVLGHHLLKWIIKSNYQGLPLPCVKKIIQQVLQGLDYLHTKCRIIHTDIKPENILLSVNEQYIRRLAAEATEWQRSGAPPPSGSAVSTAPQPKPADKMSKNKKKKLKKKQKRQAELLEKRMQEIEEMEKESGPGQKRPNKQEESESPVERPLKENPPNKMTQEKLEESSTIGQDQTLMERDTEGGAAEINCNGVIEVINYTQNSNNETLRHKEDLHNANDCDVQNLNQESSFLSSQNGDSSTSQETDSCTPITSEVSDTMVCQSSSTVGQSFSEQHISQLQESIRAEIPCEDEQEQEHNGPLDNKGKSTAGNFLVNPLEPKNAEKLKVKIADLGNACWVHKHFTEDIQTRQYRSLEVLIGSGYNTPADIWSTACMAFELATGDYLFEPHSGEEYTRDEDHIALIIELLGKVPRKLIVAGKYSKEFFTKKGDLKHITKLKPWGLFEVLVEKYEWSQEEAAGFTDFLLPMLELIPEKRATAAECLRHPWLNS

IC50 (SRPK1 [1]) | DSF (ΔTm/°C) (SRPK1 [2]) | SMILES | levels of VEGF165b relative to VEGF165 RNA [3] | VEGF165b and VEGF165 protein [4] | anti-angiogenic efficacy as an eye drop (CNV lesion size) (laser-induced CNV) | factor more effective than the known pazopanib-based eye drop treatment for AMD (laser-induced CNV; eye drop)
3.5 nM | 17.36 °C | O=C(Nc1cc(C(F)(F)F)ccc1N1CCN(Cc2cc[nH]n2)CC1)c1ccc(C2CCOCC2)o1 [Compound 14, N-(2-(4-((1H-pyrazol-3-yl)methyl)piperazin-1-yl)-5-(trifluoromethyl)-phenyl)-5-(tetrahydro-2H-pyran-4-yl)furan-2-carboxamide] | decrease VEGF-A165a/VEGF165b mRNA isoform expression; also recorded: decrease in VEGF165 | – | – | –
– | – | O=C(Nc1cc(C(F)(F)F)ccc1N1CCN(Cc2cocn2)CC1)c1ccc(-c2ccncc2)o1 [Compound 17, N-(2-(4-(oxazol-4-ylmethyl)piperazin-1-yl)-5-(trifluoromethyl)phenyl)-5-(pyridin-4-yl)furan-2-carboxamide] | – | increase in VEGF165b, but not VEGF165 protein | same anti-angiogenic activity on lesion size and the same efficacy as reference compounds | –
– | – | O=C(Nc1cc(C(F)(F)F)ccc1N1CCN(Cc2cocn2)CC1)c1ccc(-c2ccncc2)o1 [N-(2-(4-(oxazol-4-ylmethyl)piperazin-1-yl)-5-(trifluoromethy] [N-(2-(4-(oxazol-4-ylmethyl)piperazin-1-yl)-5-(trifluoromethyl)phenyl)-5-(pyridin-4-yl)furan-2-carboxamide] | – | – | same efficacy | 10

From patent EP3362444B1, “COMPOUNDS” (Exonate Limited, priority 2015, dated 2017)
